Results published in patent US8192962B2, “Processes for detecting toxic substances” (Daikin Industries, Ltd., priority 2001, dated 2012).

System: Genes belonging to other category
Test: DNA chip mRNA expression in yeast, genes belonging to other category (Table 9)
Type: cell-based, Saccharomyces cerevisiae S288C
Method: Yeast (Saccharomyces cerevisiae S288C (α SUC2mal mel gap2 CUP1)) were incubated at 25° C. on YPD medium (yeast extract 1%, polypepton 2%, glucose 2%). One of toxic chemical substances was added to the cells at logarithmic growth phase, and the cells were further incubated for two hours. Cells were cultured without any chemical substance in the same condition, and were used as control. Concentrations of the chemical substances were defined to inhibit the growth of the yeast but not lead to death.
After completion of the incubation, the culture was centrifuged to collect the cells. To the cells, sodium acetate buffer (50 mM sodium acetate, 10 mM EDTA, 1% SDS) was added, and the mixture was shaken at 65° C. for five minutes, followed by returning to room temperature, and obtaining the supernatant, of which the procedures were repeated two times. To the supernatant, ½ amount of a solution of phenol/chloroform was added, and the mixture was centrifuged to give a supernatant, which was added with an equal amount of chloroform, and the mixture was centrifuged to give a supernatant. To the supernatant, an equal amount of isopropanol containing 0.3 M sodium acetate was added, and the mixture was allowed to stand at room temperature for 30 minutes, after which the mixture was centrifuged to give a sediment of the whole RNAs. Seventy % ethanol was added to the sediment, and the mixture was again centrifuged to give a sediment, which was then dried and dissolved in water. mRNA was isolated from the whole RNAs as followings. In view of the fact that a poly A chain is attached to the 3′ terminus of mRNA, a polynucleotide having a poly T structure which was immobilized on the surface of latex beads was used to trap the mRNA, and then the mRNA was washed and eluted with spine column (Oligotex-dT30<Super>mRNA Purification Kit, Takara). Reverse transcription of the mRNA was conducted with a reverse transcriptase (Super Script II Reverse Transcriptase; catalogue No. 18064-014, GibcoBRL) using fluorescence-labeled nucleotides to give cDNAs that were introduced with Cy3-dUTP or Cy5-dUTP during the reverse transcription.
The labeled cDNAs were dissolved in TE buffer (10mM Tris-HCl/1 mM EDTA, pH8.0), and the solution was dropped on the DNA chip containing the whole genes of yeast (DNA Chip Research Inc. Japan) so that the cDNAs were hybridized on the DNA chip at 65° C. for over 12 hours. The fluoresces intensity of the DNA chip was read with a scanner, and the ratio relative to the fluorescence intensity resulting from the absence of chemical substance was estimated as the following, which is shown in Tables 1 to 9: […]

Q: Which “The level of expressed mRNA in the presence of chemical substance/The level of expressed mRNA in the absence of chemical substance” value (yeast gene YKL008C) does the source give for [Cl][Hg][Cl] [(3), HgCl2] here?
A: 2.0

Q: And the “The level of expressed mRNA in the presence of chemical substance/The level of expressed mRNA in the absence of chemical substance” value (yeast gene YKL013C)?
A: 1.4

Q: What about the “The level of expressed mRNA in the presence of chemical substance/The level of expressed mRNA in the absence of chemical substance” value (yeast gene YKL039W) of the same compound?
A: 2.4

Q: And the “The level of expressed mRNA in the presence of chemical substance/The level of expressed mRNA in the absence of chemical substance” value (yeast gene YKL096W)?
A: 8.1

Q: And the “The level of expressed mRNA in the presence of chemical substance/The level of expressed mRNA in the absence of chemical substance” value (yeast gene YKL165C)?
A: 1.1

Q: And the “The level of expressed mRNA in the presence of chemical substance/The level of expressed mRNA in the absence of chemical substance” value (yeast gene YKL193C)?
A: 1.1

Q: What about the “The level of expressed mRNA in the presence of chemical substance/The level of expressed mRNA in the absence of chemical substance” value (yeast gene YLR120C) of the same compound?
A: 2.4

Q: And the “The level of expressed mRNA in the presence of chemical substance/The level of expressed mRNA in the absence of chemical substance” value (yeast gene YLR136C)?
A: 0.6

Q: What about the “The level of expressed mRNA in the presence of chemical substance/The level of expressed mRNA in the absence of chemical substance” value (yeast gene YLR178C) of the same compound?
A: 8.8

Q: And the “The level of expressed mRNA in the presence of chemical substance/The level of expressed mRNA in the absence of chemical substance” value (yeast gene YLR250W)?
A: 1.0

Q: And the “The level of expressed mRNA in the presence of chemical substance/The level of expressed mRNA in the absence of chemical substance” value (yeast gene YLR327C)?
A: 14.4

Q: And the “The level of expressed mRNA in the presence of chemical substance/The level of expressed mRNA in the absence of chemical substance” value (yeast gene YLR356W)?
A: 4.9

Q: And the “The level of expressed mRNA in the presence of chemical substance/The level of expressed mRNA in the absence of chemical substance” value (yeast gene YLR362W)?
A: 1.0

Q: And the “The level of expressed mRNA in the presence of chemical substance/The level of expressed mRNA in the absence of chemical substance” value (yeast gene YLR391W)?
A: 2.9

Q: What about the “The level of expressed mRNA in the presence of chemical substance/The level of expressed mRNA in the absence of chemical substance” value (yeast gene YLR429W) of the same compound?
A: 0.6

Q: And the “The level of expressed mRNA in the presence of chemical substance/The level of expressed mRNA in the absence of chemical substance” value (yeast gene YMR004W)?
A: 1.3

Q: What about the “The level of expressed mRNA in the presence of chemical substance/The level of expressed mRNA in the absence of chemical substance” value (yeast gene YMR094W) of the same compound?
A: 1.3

Q: What about the “The level of expressed mRNA in the presence of chemical substance/The level of expressed mRNA in the absence of chemical substance” value (yeast gene YMR104C) of the same compound?
A: 2.2

Q: And the “The level of expressed mRNA in the presence of chemical substance/The level of expressed mRNA in the absence of chemical substance” value (yeast gene YMR219W)?
A: 1.0

Q: And the “The level of expressed mRNA in the presence of chemical substance/The level of expressed mRNA in the absence of chemical substance” value (yeast gene YMR226C)?
A: 1.4

Q: What about the “The level of expressed mRNA in the presence of chemical substance/The level of expressed mRNA in the absence of chemical substance” value (yeast gene YMR275C) of the same compound?
A: 1.2

Q: What about the “The level of expressed mRNA in the presence of chemical substance/The level of expressed mRNA in the absence of chemical substance” value (yeast gene YMR276W) of the same compound?
A: 1.5

Q: And the “The level of expressed mRNA in the presence of chemical substance/The level of expressed mRNA in the absence of chemical substance” value (yeast gene YMR314W)?
A: 0.9

Q: And the “The level of expressed mRNA in the presence of chemical substance/The level of expressed mRNA in the absence of chemical substance” value (yeast gene YNL006W)?
A: 1.3

Q: What about the “The level of expressed mRNA in the presence of chemical substance/The level of expressed mRNA in the absence of chemical substance” value (yeast gene YNL007C) of the same compound?
A: 5.1

Q: And the “The level of expressed mRNA in the presence of chemical substance/The level of expressed mRNA in the absence of chemical substance” value (yeast gene YNL093W)?
A: 0.4

Q: And the “The level of expressed mRNA in the presence of chemical substance/The level of expressed mRNA in the absence of chemical substance” value (yeast gene YNL333W)?
A: 1.7

Q: What about the “The level of expressed mRNA in the presence of chemical substance/The level of expressed mRNA in the absence of chemical substance” value (yeast gene YNR010W) of the same compound?
A: 0.5

Q: What about the “The level of expressed mRNA in the presence of chemical substance/The level of expressed mRNA in the absence of chemical substance” value (yeast gene YNR069C) of the same compound?
A: 0.7

Q: What about the “The level of expressed mRNA in the presence of chemical substance/The level of expressed mRNA in the absence of chemical substance” value (yeast gene YOL013C) of the same compound?
A: 1.0

Q: And the “The level of expressed mRNA in the presence of chemical substance/The level of expressed mRNA in the absence of chemical substance” value (yeast gene YOL164W)?
A: 1.0

Q: What about the “The level of expressed mRNA in the presence of chemical substance/The level of expressed mRNA in the absence of chemical substance” value (yeast gene YOR036W) of the same compound?
A: 1.4

Q: And the “The level of expressed mRNA in the presence of chemical substance/The level of expressed mRNA in the absence of chemical substance” value (yeast gene YOR117W)?
A: 1.7

Q: And the “The level of expressed mRNA in the presence of chemical substance/The level of expressed mRNA in the absence of chemical substance” value (yeast gene YOR124C)?
A: 1.3

Q: What about the “The level of expressed mRNA in the presence of chemical substance/The level of expressed mRNA in the absence of chemical substance” value (yeast gene YOR132W) of the same compound?
A: 0.8

Q: And the “The level of expressed mRNA in the presence of chemical substance/The level of expressed mRNA in the absence of chemical substance” value (yeast gene YOR157C)?
A: 1.2

Q: What about the “The level of expressed mRNA in the presence of chemical substance/The level of expressed mRNA in the absence of chemical substance” value (yeast gene YOR181W) of the same compound?
A: 1.1

Q: What about the “The level of expressed mRNA in the presence of chemical substance/The level of expressed mRNA in the absence of chemical substance” value (yeast gene YOR185C) of the same compound?
A: 1.9

Q: And the “The level of expressed mRNA in the presence of chemical substance/The level of expressed mRNA in the absence of chemical substance” value (yeast gene YOR198C)?
A: 1.4

Q: And the “The level of expressed mRNA in the presence of chemical substance/The level of expressed mRNA in the absence of chemical substance” value (yeast gene YOR259C)?
A: 0.8

Q: And the “The level of expressed mRNA in the presence of chemical substance/The level of expressed mRNA in the absence of chemical substance” value (yeast gene YOR261C)?
A: 0.6

Q: What about the “The level of expressed mRNA in the presence of chemical substance/The level of expressed mRNA in the absence of chemical substance” value (yeast gene YOR288C) of the same compound?
A: 1.1

Q: And the “The level of expressed mRNA in the presence of chemical substance/The level of expressed mRNA in the absence of chemical substance” value (yeast gene YOR355W)?
A: 1.1

Q: And the “The level of expressed mRNA in the presence of chemical substance/The level of expressed mRNA in the absence of chemical substance” value (yeast gene YOR383C)?
A: 2.6

Q: What about the “The level of expressed mRNA in the presence of chemical substance/The level of expressed mRNA in the absence of chemical substance” value (yeast gene YPL089C) of the same compound?
A: 0.5

Q: What about the “The level of expressed mRNA in the presence of chemical substance/The level of expressed mRNA in the absence of chemical substance” value (yeast gene YPL109C) of the same compound?
A: 0.5

Q: And the “The level of expressed mRNA in the presence of chemical substance/The level of expressed mRNA in the absence of chemical substance” value (yeast gene YPL149W)?
A: 0.6

Q: And the “The level of expressed mRNA in the presence of chemical substance/The level of expressed mRNA in the absence of chemical substance” value (yeast gene YPL154C)?
A: 4.2

Q: What about the “The level of expressed mRNA in the presence of chemical substance/The level of expressed mRNA in the absence of chemical substance” value (yeast gene YPR103W) of the same compound?
A: 1.3

Q: And the “The level of expressed mRNA in the presence of chemical substance/The level of expressed mRNA in the absence of chemical substance” value (yeast gene YPR108W)?
A: 1.3
